# Numbered stars: 1 amine (or outer) side, 2 acyl side, 3 side chain; on linkers, the order of the positions; unused ones are H or OH. Square brackets hold non-standard residues; d marks the D form. Peptide text beside a SMILES is read from it. ξ: configuration not given here. ξ3Amino2oxobutanoyl = CC(N[*:1])C(=O)C(=O)[*:2]; GABA = NCCCC(=O)O; βAla = NCCC(=O)O
# Molecular target: T1, Subtilisin-like protease 1 (Plasmodium falciparum, UniProt O61142)
# T1 sequence (O61142 whole entry): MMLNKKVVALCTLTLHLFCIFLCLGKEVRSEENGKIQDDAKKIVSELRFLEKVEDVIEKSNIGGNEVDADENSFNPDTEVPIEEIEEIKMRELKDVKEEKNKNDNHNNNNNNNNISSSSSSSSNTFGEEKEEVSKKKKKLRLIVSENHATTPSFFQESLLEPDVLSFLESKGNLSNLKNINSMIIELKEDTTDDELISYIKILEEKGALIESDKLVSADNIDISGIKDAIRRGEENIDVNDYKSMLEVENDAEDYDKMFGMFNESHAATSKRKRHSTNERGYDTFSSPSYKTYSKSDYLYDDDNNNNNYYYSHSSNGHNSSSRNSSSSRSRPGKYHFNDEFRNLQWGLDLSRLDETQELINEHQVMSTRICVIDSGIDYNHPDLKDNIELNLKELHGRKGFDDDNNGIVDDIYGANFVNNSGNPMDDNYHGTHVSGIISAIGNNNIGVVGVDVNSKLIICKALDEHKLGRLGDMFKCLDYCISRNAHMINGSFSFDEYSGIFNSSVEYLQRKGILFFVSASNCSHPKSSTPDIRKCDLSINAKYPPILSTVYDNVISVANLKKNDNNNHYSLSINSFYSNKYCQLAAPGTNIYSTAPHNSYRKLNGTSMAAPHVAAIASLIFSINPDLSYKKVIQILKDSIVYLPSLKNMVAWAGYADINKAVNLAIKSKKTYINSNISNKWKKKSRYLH
# Assay: Inhibition of Plasmodium falciparum SUB1
IC50,Ki,Structure (SMILES)
> 50 µM,,CC[C@H](C)[C@H](NC(C)=O)C(=O)N[C@H](C(=O)N[C@@H](C)C(=O)NC(C(=O)C(=O)NCCC(=O)O)c1ccccc1)[C@@H](C)O (stereo partly drawn)
,8 µM,O=C(Nc1ccc(-c2nc3cc(NC(=O)c4ccccc4)ccc3[nH]2)cc1)c1ccccc1
> 50 µM,,CC[C@H](C)[C@H](NC(C)=O)C(=O)N[C@H](C(=O)NC1(C(=O)NC(C)C(=O)C(=O)NCCC(=O)O)CC1)[C@@H](C)O (stereo partly drawn)
5 µM,,CC[C@H](C)[C@H](NC(C)=O)C(=O)N[C@H](C(=O)N[C@@H](C)C(=O)NC(CCC(=O)O)C(=O)C(=O)NCCC(=O)O)[C@@H](C)O (stereo partly drawn)
20 µM,,CC[C@H](C)[C@H](NC(C)=O)C(=O)N[C@H](C(=O)N[C@@H](C)C(=O)NC(C(=O)C(=O)NCCC(=O)O)C(C)C)[C@@H](C)O (stereo partly drawn)
1.2 µM,,CCC(NC(=O)CNC(=O)[C@@H](NC(=O)[C@@H](NC(C)=O)[C@@H](C)CC)[C@@H](C)O)C(=O)C(=O)NCCC(=O)O (stereo partly drawn)
> 50 µM,,CC(=O)N[C@@H](C)C(=O)N[C@H](C(=O)NCC(=O)NC(C)C(=O)C(=O)NCCC(=O)O)[C@@H](C)O (stereo partly drawn)
4.5 µM,,CC[C@H](C)[C@H](NC(C)=O)C(=O)N[C@H](C(=O)NCC(=O)NC(C(=O)C(=O)NCCC(=O)O)C(C)C)[C@@H](C)O (stereo partly drawn)
> 50 µM,,CC[C@H](C)[C@H](NC(C)=O)C(=O)N[C@H](C(=O)NC(C)(C)C(=O)NC(C)C(=O)C(=O)NCCC(=O)O)[C@@H](C)O (stereo partly drawn)
> 50 µM,,CC[C@H](C)[C@H](NC(C)=O)C(=O)N[C@H](C(=O)N[C@@H](C)C(=O)NC(C[C@@H]1CCNC1=O)C(=O)C(=O)NCCC(=O)O)[C@@H](C)O (stereo partly drawn)

# Second part, the compound before the results:
Structure (SMILES),IC50,Ki
CC[C@H](C)[C@H](NC(C)=O)C(=O)N[C@H](C(=O)NCC(=O)NC(C)C(=O)C(=O)NCCC(=O)O)[C@@H](C)O (stereo partly drawn),0.9 µM,
CC[C@H](C)[C@H](NC(C)=O)C(=O)N[C@H](C(=O)N[C@@H](C)C(=O)NC(Cc1ccccc1)C(=O)C(=O)NCCC(=O)O)[C@@H](C)O (stereo partly drawn),100 µM,
Oc1ccc(C2Oc3c(c(O)cc4c3C3c5c(O)cc(O)c(O)c5OC(c5ccc(O)c(O)c5)(O4)C3O)CC2O)cc1O (stereo not drawn),0.3 µM,
CC[C@H](C)[C@H](NC(=O)[C@H](CCCCN)NC(C)=O)C(=O)N[C@H](C(=O)N[C@@H](C)C(=O)NC(C)C(=O)C(=O)NCCCC(=O)O)[C@@H](C)O (stereo partly drawn) (Ac-KITA[ξ3Amino2oxobutanoyl][GABA]-OH),3.1 µM,
CC[C@H](C)[C@H](NC(C)=O)C(=O)N[C@H](C(=O)N[C@@H](C)C(=O)NC(CCC(=O)N(C)C)C(=O)C(=O)NCCC(=O)O)[C@@H](C)O (stereo partly drawn),> 50 µM,
CC[C@H](C)[C@H](NC(=O)[C@H](CCCCN)NC(C)=O)C(=O)N[C@H](C(=O)N[C@@H](C)C(=O)NC(C)C(=O)C(=O)NCC(=O)O)[C@@H](C)O (stereo partly drawn) (Ac-KITA[ξ3Amino2oxobutanoyl]G-OH),10 µM,
CC[C@@H](C)[C@H](NC(=O)[C@H](CCCCN)NC(C)=O)C(=O)N[C@H](C(=O)N[C@@H](C)C(=O)NC(CCC(N)=O)C(=O)C(=O)NCCC(=O)O)[C@@H](C)O (stereo partly drawn),7 µM,
COc1ccc(Nc2cc(C)c3cc(NC(=O)c4cc5ccccc5[nH]4)ccc3n2)cc1,,6 µM
CC[C@H](C)[C@H](NC(C)=O)C(=O)N[C@H](C(=O)N[C@@H](C)C(=O)NC(C)C(=O)C(=O)NCCC(=O)O)[C@@H](C)O (stereo partly drawn),2.5 µM,
CC[C@H](C)[C@H](NC(C)=O)C(=O)N[C@@H](C)C(=O)N[C@@H](C)C(=O)NC(C)C(=O)C(=O)NCCC(=O)O (stereo partly drawn),30 µM,
CC[C@H](C)[C@H](NC(=O)[C@H](CCCCN)NC(C)=O)C(=O)N[C@H](C(=O)N[C@@H](C)C(=O)NC(C)C(=O)C(=O)NCCC(=O)O)[C@@H](C)O (stereo partly drawn) (Ac-KITA[ξ3Amino2oxobutanoyl][βAla]-OH),1 µM,
CC[C@H](C)[C@H](NC(=O)[C@H](CCCCN)NC(C)=O)C(=O)N[C@H](C(=O)N[C@@H](C)C(=O)NC(C)C(=O)C(=O)NCCC(N)=O)[C@@H](C)O (stereo partly drawn) (Ac-KITA[ξ3Amino2oxobutanoyl][βAla]-NH2),38 µM,
O=C(CCCCCNC(=O)CCCC[C@@H]1SC[C@@H]2NC(=O)N[C@@H]21)NCCCCCC(=O)Nc1ccc2c(Cl)c(OCCc3ccccc3)oc(=O)c2c1,18 µM,
